Read-outs that look alike come from different tables or passages of the source. Marks after values point to notes of the source that are not given here.
How the values were obtained:
[1] = target: SV40 TAg ATPase activity (Simian virus 40, UniProt P03070); assay: biochemical; format: biochemical; conditions: for inhibition of TAg ATPase activity (SAR screen): 30 μM compound; for potency of TAg ATPase inhibition compared with MAL2-11B: 100 μM compound; for inhibition at 3 µM: read-out: inhibition of TAg ATPase activity; for inhibition at 30 µM: read-out: inhibition of the ATPase activity of TAg
SV40 TAg ATPase activity, sequence (P03070 whole entry): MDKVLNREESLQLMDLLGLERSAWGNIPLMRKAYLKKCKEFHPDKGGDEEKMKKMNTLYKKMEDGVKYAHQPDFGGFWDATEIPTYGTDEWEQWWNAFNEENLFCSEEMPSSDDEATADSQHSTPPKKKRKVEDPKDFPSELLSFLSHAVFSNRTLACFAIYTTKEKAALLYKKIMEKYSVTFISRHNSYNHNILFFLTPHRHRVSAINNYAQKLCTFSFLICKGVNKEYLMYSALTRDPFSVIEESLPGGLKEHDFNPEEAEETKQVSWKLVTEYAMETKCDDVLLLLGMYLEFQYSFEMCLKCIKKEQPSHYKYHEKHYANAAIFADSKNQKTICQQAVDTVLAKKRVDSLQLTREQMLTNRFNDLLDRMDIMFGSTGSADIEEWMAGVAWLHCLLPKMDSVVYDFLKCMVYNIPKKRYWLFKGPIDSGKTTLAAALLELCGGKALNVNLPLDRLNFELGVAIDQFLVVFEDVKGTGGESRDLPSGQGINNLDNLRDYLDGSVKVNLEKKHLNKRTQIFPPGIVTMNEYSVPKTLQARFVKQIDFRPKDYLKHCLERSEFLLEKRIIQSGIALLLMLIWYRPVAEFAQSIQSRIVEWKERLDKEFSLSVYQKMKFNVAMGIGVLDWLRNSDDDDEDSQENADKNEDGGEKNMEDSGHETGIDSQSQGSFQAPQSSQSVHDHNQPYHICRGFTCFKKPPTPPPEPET

[2] = target: T1, SV40 TAg (Simian virus 40, UniProt P03070); format: biochemical
T1 sequence (P03070 whole entry): as above

[3] = tested on: SV40; assay: SV40 plaque assay in CV1 cells; format: cell-based, Simian Virus 40; conditions: 2 days; for inhibition of viral replication relative to the DMSO control (plaque assay): 30 μM
[4] = tested on: SV40; assay: SV40 DNA replication by qPCR in CV1 cells; format: cell-based, Simian Virus 40; conditions: 48 hpi; for inhibition of DNA replication: 30 μM
[5] = tested on: BKV; assay: BKV DNA replication by qPCR in Vero cells; format: cell-based, BK virus; conditions: 10 μM, 5 d
[6] = tested on: CV1 cells; assay: MTS viability assay; format: cell-based, monkey; conditions: CV1 cells ~90% confluency, 48 h
[7] = target: T1, SV40 TAg; assay: TAg aggregation under ATPase assay conditions; conditions: utilized ATPase assay conditions
[8] = TAg in the presence of 3 μM compound

For `Oc1c(Br)cc(Cl)cc1Cc1cc(Cl)cc(Br)c1O` [6,6'-methylenebis(2-bromo-4-chlorophenol)], the “inhibition of TAg ATPase activity (SAR screen)” value [1] was “inhibited TAg ATPase activity”.
In the case of `Oc1c(Br)cc(Cl)cc1Sc1cc(Cl)cc(Br)c1O` [6,6'-thiobis(2-bromo-4-chlorophenol)], the “inhibition of TAg ATPase activity (SAR screen)” value [1] is reported as “inhibited TAg ATPase activity”.
In the case of `Nc1ncnc2c1ncn2[C@@H]1O[C@H](COP(=O)(O)OP(=O)(O)O)[C@@H](O)[C@H]1O` [ADP], the Vmax ([2]; TAg in the presence of 150 μM ADP) is reported as 2.9 ^‡ pmol/min.
For `CC1=C(C(=O)OCc2ccccc2)C(c2ccc(-c3ccccc3)cc2)NC(=O)N1CCCCCC(=O)O` (stereo not drawn) [MAL2-11B], the “reduction of the number of plaques” value ([3]; 100 μM) was about 60% and the “inhibition of DNA replication in culture” value ([4]; 100 μM) was ~ 60%.
With `Oc1c(Cl)cc(Cl)cc1Sc1cc(Cl)cc(Cl)c1O` [bithionol, Bithionol] the “potency of TAg ATPase inhibition compared with MAL2-11B” value [1] was “significantly more potent inhibitors than MAL2-11B”, the inhibition at 3 µM [1] was about 50% and the inhibition at 30 µM [1] was about 80%. For the same molecule, the Vmax [2, 8] was 10 ^‡ pmol/min, the “inhibition of viral replication relative to the DMSO control (plaque assay)” value [3] was about 100 fold and the “inhibition of DNA replication” value [4] was ~ 100 fold. For the same molecule, the “inhibition of BKV replication” value [5] was “somewhat less effective” and the “MI50 (metabolic index-50)” value [6] was 68 µM.
For `O=C1C(Cl)=C(Cl)C(=O)C(Cl)=C1Cl` [chloranil], the “potency of TAg ATPase inhibition compared with MAL2-11B” value [1] was “significantly more potent inhibitors than MAL2-11B” and the TAg aggregation [7] was “caused TAg to aggregate”.
`Oc1c(Cl)cc(Cl)c(Cl)c1Cc1c(O)c(Cl)cc(Cl)c1Cl` [hexachlorophene] was tested, and the “potency of TAg ATPase inhibition compared with MAL2-11B” value [1] was “significantly more potent inhibitors than MAL2-11B”, the inhibition at 3 µM [1] was about 50% and the inhibition at 30 µM [1] was about 80%. For the same molecule, the Vmax [2, 8] was 6.6 ^‡ pmol/min, the “inhibition of viral replication relative to the DMSO control (plaque assay)” value [3] was about 100 fold and the “inhibition of DNA replication” value [4] was ~ 100 fold. The “inhibition of BKV replication” value [5] was “maintained its potent inhibition”, the “MI50 95% confidence range based on the sigmoidal fit” value [6] was 29 to 71 µM and the “MI50 (metabolic index-50)” value [6] was 55 µM.

Reference: publication PMC3465505 (Antiviral research, 2012)
